Measurements taken from patent publication US20240368163A1, “COMPOUNDS AND METHODS FOR MODULATING SPLICING” (REMIX THERAPEUTICS INC., priority 2021, published 2024).
Read-outs that look alike come from different tables or passages of the source.

Experiments:
Type in all cases: cell-based, human
MYB = assay: Splicing RT-qPCR assay, MYB mRNA canonical junction (CJ) and alternative junction (AJ); conditions: for AC50: increase in AJ mRNA
Outline: (§1)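 Cells: A673 (DMEM/10% FBS) or K562 (IMDM/10% FBS). Dose: 11-pt 3-fold, top 10 uM final, ≤0.25% DMSO, 24 h, 37 °C. Readout: RT-qPCR of CJ/AJ exon junctions, ΔΔCt vs housekeeper and DMSO, RQ to % response.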

Target C [1] = assay: Splicing RT-qPCR panel, Target C canonical junction (CJ) mRNA; conditions: read-out: Target C IC50 (decrease in CJ mRNA levels)
Outline: as §1

SMN2 = assay: Splicing RT-qPCR panel, SMN2 canonical junction (CJ) mRNA; conditions: read-out: SMN2 IC50 (decrease in CJ mRNA levels)
Outline: as §1

Target C [2] = assay: HiBiT protein abundance assay, Target C; conditions: modified K562 cells
Outline: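 Target tagged with HiBiT by knock-in; 24 h dosing, 10 μM top final in 3-fold steps. IC50 from 4PL fit of normalized luminescence.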

[3] = Homo sapiens, 24 h, decrease in CJ mRNA, A673 or K562 cells, 24 hours treatment, RT-qPCR, read-out: MYB CJ IC50
[4] = Homo sapiens, 24 h, A673 or K562 cells, 24 hours treatment, RT-qPCR
[5] = Homo sapiens, RT-qPCR panel, canonical junction mRNA, compound concentration having 50% response in CJ decrease, read-out: MYB IC50 (decrease in CJ mRNA levels)
[6] = Homo sapiens, RT-qPCR panel, canonical junction mRNA, compound concentration having 50% response in CJ decrease
[7] = Homo sapiens, K562, 24 h, Table 13A
[8] = RT-qPCR panel, canonical junction mRNA, compound concentration having 50% response in CJ decrease, read-out: MYB IC50 (decrease in CJ mRNA levels)
[9] = decrease in CJ mRNA, A673 or K562 cells, 24 hours treatment, RT-qPCR, read-out: MYB CJ IC50
[10] = RT-qPCR panel, canonical junction mRNA, compound concentration having 50% response in CJ decrease
[11] = Homo sapiens, gene panel, CJ qPCR, protocol of Example 142, read-out: MYB IC50 (decrease in CJ mRNA levels)
[12] = Homo sapiens, gene panel, CJ qPCR, protocol of Example 142
[13] = Homo sapiens, K562, 24 h, Table 13B

SMILES | IC50 (MYB; [3]) [nM] | AC50 (MYB; [4]) [nM] | IC50 (MYB; [5]) [nM] | IC50 (Target C [1]; [6]) [nM] | IC50 (SMN2; [6]) [nM] | IC50 (Target C [2]; [7]) [nM] | further results
CC1(C)CC(Oc2ccc(-c3cc(F)c(-c4cn[nH]c4)c4cn[nH]c34)nn2)CC(C)(C)N1 [Compound 307] | 100 to 1000 | 1000 to 10000 | 100 to 1000 | 100 to 1000 | < 100 | 100 to 1000 | 
c1nc2c(-c3cn[nH]c3)ccc(-c3ccc(N(C4CC4)C4C[C@H]5CCC[C@@H](C4)N5)nn3)c2s1 (some centres unmarked) [Compound 311] | 100 to 1000 | 100 to 1000 | 100 to 1000 | 100 to 1000 | < 100 | < 100 | 
Fc1cc(-c2ccc(OC3CC4CC(F)(F)C(C3)N4)nn2)c2[nH]ncc2c1-c1cn[nH]c1 (centres unmarked) [Compound 313, 7-[6-({6,6-difluoro-8-azabicyclo[3.2.1]octan-3-yl}oxy)pyridazin-3-yl]-5-fluoro-4-(1H-pyrazol-4-yl)-1H-indazole] | 100 to 1000 | 100 to 1000 | 100 to 1000 | 100 to 1000 | < 100 | 100 to 1000 | 
Fc1cc(-c2ccc(O[C@@H]3C[C@H]4CC[C@@H](C3)N4)nn2)c2sncc2c1-c1cn[nH]c1 [Compound 327] | < 100 | < 100 | < 100 | < 100 | < 100 | < 100 | 
COc1cc(-c2ccc(-c3ccc(N(C)C4CC(C)(C)NC(C)(C)C4)nn3)c3scnc23)cnn1 [Compound 330] | 100 to 1000 | 100 to 1000 | 100 to 1000 | < 100 | < 100 | < 100 | 
CC(C)(C)NC1CCN(c2ccc(-c3ccc(-c4cn[nH]c4)c4ncsc34)nn2)C1 (centres unmarked) [Compound 336] |  |  |  |  | < 100 |  | IC50 (MYB; [8]): 100 to 1000 nM; IC50 (MYB; [9]): 100 to 1000 nM; IC50 (Target C [1]; [10]): > 10000 nM; IC50 (Target C [2]; Table 13A, 24 hours): 100 to 1000 nM
c1nc2c(-c3cn[nH]c3)ccc(-c3ccc(N4CCC(NC5CC5)C4)nn3)c2s1 (centres unmarked) [Compound 337] | > 10000 | > 10000 | > 10000 | > 10000 | 100 to 1000 | > 10000 | 
Fc1cc(-c2ccc(N[C@@H]3C[C@H]4CC[C@@H](C3)N4)nn2)c2scnc2c1-c1cn[nH]c1 [Compound 339] | < 100 | < 100 | < 100 | < 100 | < 100 | < 100 | 
Cc1ncc(-c2ccc(-c3ccc(O[C@@H]4C[C@H]5CC[C@@H](C4)N5)nn3)c3scnc23)s1 [Compound 348, 7-{6-[(exo)-8-azabicyclo[3.2.1]octan-3-yloxy]pyridazin-3-yl}-4-(2-methyl-1,3-thiazol-5-yl)-1,3-benzothiazole] | 100 to 1000 | 100 to 1000 | 100 to 1000 | 100 to 1000 | < 100 | 100 to 1000 | 
CN(c1ccc(-c2ccc(-c3cn[nH]c3)c3ncsc23)nn1)[C@H]1C[C@H]2COC[C@@H](C1)N2 [Compound 356, (endo)-N-methyl-N-{6-[4-(1H-pyrazol-4-yl)-1,3-benzothiazol-7-yl]pyridazin-3-yl}-3-oxa-9-azabicyclo[3.3.1]nonan-7-amine] |  |  |  |  |  |  | IC50 (MYB; [8]): 100 to 1000 nM; IC50 (MYB; [9]): 100 to 1000 nM; IC50 (Target C [1]; [10]): < 100 nM; IC50 (SMN2; [10]): < 100 nM; IC50 (Target C [2]; Table 13A, 24 hours): < 100 nM
COc1cc(-c2ccc(-c3ccc(O[C@@H]4C[C@H]5CC[C@@H](C4)N5)nn3)c3scnc23)cnn1 [Compound 362] | 100 to 1000 | < 100 | 100 to 1000 | 100 to 1000 | < 100 | < 100 | 
Fc1ccn(-c2ccc(-c3ccc(O[C@@H]4C[C@H]5CC[C@@H](C4)N5)nn3)c3scnc23)n1 [Compound 363] | 100 to 1000 | 100 to 1000 | 100 to 1000 | 100 to 1000 | < 100 | 100 to 1000 | 
CN(c1ncc(-c2ccc(-n3cccn3)c3[nH]ncc23)nn1)[C@@H]1C[C@H]2CCC[C@@H](C1)N2 [Compound 551] |  |  | 100 to 1000 | < 100 | < 100 | < 100 | 
c1cnn(-c2ccc(-c3cnc(N[C@@H]4C[C@H]5CC[C@@H](C4)N5)nn3)c3cn[nH]c23)c1 [Compound 556] |  |  | 100 to 1000 | 100 to 1000 | 100 to 1000 | < 100 | 
c1cnn(-c2ccc(-c3cnc(N[C@@H]4C[C@H]5CCC[C@@H](C4)N5)nn3)c3cn[nH]c23)c1 [Compound 561] |  |  | 100 to 1000 | 100 to 1000 | 100 to 1000 | < 100 | 
CC(C)(C)C1CN(c2ncc(-c3ccc(-n4cccn4)c4[nH]ncc34)nn2)CCN1 (centres unmarked) [Compound 572] |  |  | 100 to 1000 | 100 to 1000 | 100 to 1000 | 100 to 1000 | 
CN(c1ncc(-c2ccc(-n3cncn3)c3[nH]ncc23)nn1)[C@@H]1C[C@H]2CCC[C@@H](C1)N2 [Compound 574] |  |  | 100 to 1000 | < 100 | < 100 | < 100 | 
CN(c1ncc(-c2ccc(-n3ccnn3)c3[nH]ncc23)nn1)[C@@H]1C[C@H]2CCC[C@@H](C1)N2 [Compound 576] |  |  | 1000 to 10000 | 100 to 1000 | 100 to 1000 | 100 to 1000 | 
Cc1ncc(-c2ccc(-c3cnc(N(C)[C@@H]4C[C@H]5CCC[C@@H](C4)N5)nn3)c3scnc23)s1 [Compound 578] |  |  | 100 to 1000 | 100 to 1000 | < 100 | < 100 | 
Cc1nc(-c2ccc(-c3cnc(N(C)[C@@H]4C[C@H]5CCC[C@@H](C4)N5)nn3)c3scnc23)cs1 [Compound 579] |  |  | 1000 to 10000 | 100 to 1000 | 100 to 1000 | 100 to 1000 | 
Cc1cc(-c2ccc(-c3cnc(N(C)[C@@H]4C[C@H]5CCC[C@@H](C4)N5)nn3)c3scnc23)sn1 [Compound 580] |  |  | 100 to 1000 | < 100 | < 100 | < 100 | 
CC(C)(C)[C@H]1CN(c2ncc(-c3ccc(-n4cccn4)c4[nH]ncc34)nn2)CCN1 [Compound 581] |  |  | 100 to 1000 | 100 to 1000 | 100 to 1000 | < 100 | 
COc1nc(-c2ccc(N(C)[C@@H]3C[C@H]4CC[C@@H](C3)N4)nn2)ccc1-c1cn[nH]c1 [Compound 906] |  |  |  |  |  |  | IC50 (MYB; [11]): 100 to 1000 nM; IC50 (Target C [1]; [12]): < 100 nM; IC50 (SMN2; [12]): < 100 nM; IC50 (Target C [2]; [13]): < 100 nM
CN(c1ccc(-c2ccc(-c3cn[nH]c3)cn2)nn1)[C@@H]1C[C@H]2CC[C@@H](C1)N2 [Compound 915] |  |  |  |  |  |  | IC50 (MYB; [11]): 100 to 1000 nM; IC50 (Target C [1]; [12]): 1000 to 10000 nM; IC50 (SMN2; [12]): > 10000 nM; IC50 (Target C [2]; [13]): 1000 to 10000 nM
COc1nc(-c2ccc(OC3CC(C)(C)NC(C)(C)C3)nn2)ccc1-c1cn[nH]c1 [Compound 917] |  |  |  |  |  |  | IC50 (MYB; [11]): 100 to 1000 nM; IC50 (Target C [1]; [12]): 100 to 1000 nM; IC50 (SMN2; [12]): < 100 nM; IC50 (Target C [2]; [13]): < 100 nM
